The results in this text go back to PubChem BioAssay AID1671319.

The target in the assay is Tyrosine-protein kinase Lyn (Homo sapiens) (UniProt P07948). Nature of the assay: inhibitors of human LYN isoform B activity – biochemical, Z'-LYTE, FRET readout, dose response (AID 1671319). As to conditions: Z'-LYTE FRET kinase assay, recombinant LYN B.
Sequence of Tyrosine-protein kinase Lyn (Homo sapiens) (P07948 whole entry, looked up, canonical isoform): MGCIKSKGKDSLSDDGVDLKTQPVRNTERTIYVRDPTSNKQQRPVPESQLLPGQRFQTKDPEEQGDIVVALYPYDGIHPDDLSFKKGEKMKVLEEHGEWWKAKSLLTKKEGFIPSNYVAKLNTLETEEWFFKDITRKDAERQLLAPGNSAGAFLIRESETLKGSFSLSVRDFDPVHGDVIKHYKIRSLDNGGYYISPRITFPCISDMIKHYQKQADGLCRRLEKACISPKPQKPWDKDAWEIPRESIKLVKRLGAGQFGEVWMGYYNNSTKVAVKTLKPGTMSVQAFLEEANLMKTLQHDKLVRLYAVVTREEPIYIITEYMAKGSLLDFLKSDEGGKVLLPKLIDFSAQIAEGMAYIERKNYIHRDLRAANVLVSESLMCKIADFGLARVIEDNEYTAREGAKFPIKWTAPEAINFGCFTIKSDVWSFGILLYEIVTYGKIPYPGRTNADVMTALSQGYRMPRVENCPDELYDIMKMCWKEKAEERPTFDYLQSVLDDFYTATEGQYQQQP

The term IC50 denotes the concentration that gives 50% inhibition. Turning to `COc1cc2ncnc(Nc3cccc(Cl)c3)c2cc1OC`, the IC50 is 244 nM.
